Measured values taken from patent US6900891B2, “Optical sensors for the detection of nitric oxide” (The Regents of the University of Michigan, priority 1999, dated 2005).

System: macrophages derived from BALB/c mice
Assay: Extracellular nitric oxide released by macrophages, measured with fiber sensors
Type: cell-based
Settings: FIG. 19; macrophages treated with LPS and INF-γ and inhibited with 1 mM inhibitor
Experimental: Specifically, said sensors were placed in solution, approximately 0.5 cm from the macrophages.
In one embodiment, the above referenced sensors were used to quantify nitric oxide production by macrophages derived from BALB/c mice. […] Some macrophages were activated by overnight incubation with medium containing 100 U/mL IFN-γ enzyme Corp., Cambridge, Mass.) and 100 ng/mL LPS (List Biological Labs, Inc., Campbell, Calif.). In addition, to activation with IFN-γ and LPS, some cells were also treated with NMMA, (Sigma) to inhibit the production of nitric oxide. Prior to nitric oxide determinations, the macrophages were removed from incubation. For inactivated macrophages, the medium was exchanged for 2 mL Ringer's buffer. […] During measurements, the cells were kept at ambient temperature (25° C.) and 7.5 mg/mL propidium iodide was used to ascertain the degree of cell viability.
In another embodiment, macrophages were derived from the tibia and femur bone marrow of Harlan Sprague-Dawley BALB/c mice were cultured and plated by methods similar to previously published methods. For extracellular measurements with fiber sensors the cells where plated at a density of 2×10^5 on 25 mm coverslips, while those to be used for scrape-loading were plated onto 35 mm petri dishes (Nunc) at a density of 2×10^6. […]

CNC(=N)NCCC[C@H](N)C(=O)O [Nω-monomethyl-L-arginine, N^ω-monomethyl-L-arginine]
[NO]: 20 µM
